Experimental findings from US8957062B2, “Substituted cyclopropyl compounds, compositions containing such compounds and methods of treatment” (Merck Sharp & Dohme Corp., priority 2011, dated 2015) are described below.

The structures appear in SMILES notation.

For one assay, the target named is T1, human GPR119 (Homo sapiens, UniProt Q8TDV5).
T1 sequence (Q8TDV5 1-308 limits assumed): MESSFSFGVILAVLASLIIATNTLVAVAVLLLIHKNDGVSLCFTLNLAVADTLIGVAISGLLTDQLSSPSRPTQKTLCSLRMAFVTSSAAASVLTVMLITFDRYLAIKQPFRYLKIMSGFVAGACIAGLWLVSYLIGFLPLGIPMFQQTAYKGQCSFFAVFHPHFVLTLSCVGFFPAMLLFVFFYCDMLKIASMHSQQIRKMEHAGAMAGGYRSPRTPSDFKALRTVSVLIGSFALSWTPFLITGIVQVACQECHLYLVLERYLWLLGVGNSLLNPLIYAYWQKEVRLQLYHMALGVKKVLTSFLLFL
As to the kind of experiment: Measurement of GPR119 signaling (cAMP assay) in cells stably transfected with human GPR119. It is filed as cell-based. The note with it: cAMP stimulation; read-out: GPR119 HumC EC50. The method, then:
Measurement of GPR119 Signaling (Cyclic AMP (cAMP) Assay)
The adenylate cyclase assay was constructed following the LANCE™ cAMP Kit (Perkin Elmer, AD0264) instructions.
The reaction was stopped by incubating with the supplied detection buffer containing the europium chelate of the Eu-SA/Biotin-cAMP tracer for 3 hours. The assay was performed in duplicate in a 384 well plate for duplicate plates and fluorescence was measured at 665 nm. Basal activity was determined using a DMSO control and maximum response was defined as cAMP stimulation produced by an internal agonist control. Standard cAMP concentrations were assayed concurrently for conversion of fluorescence signal to cAMP level. The data was analyzed using 4-parameter curve fit in Microsoft Excel.
Measurement of GPR119 Signaling (cAMP Homogenous Time Resolved Fluorescence (HTRF) Assay)
Chinese hamster ovary (CHO) cell lines stably transfected with the permissive guanine nucleotide binding protein alpha 15 (Gα15) and murine GPR119 were maintained in DMEM media containing FBS, penicillin-streptomycin, puromycin, and G418 (geneticin). […] Agonist activation of the GPR119 receptor was measured in receptor transfected cells described above, treated with compounds of this invention, using a commercial homogenous time resolved fluorescence (HTRF) kit for measurement of cAMP (CisBio, Bedford, Mass.). The assay was performed in 96-well half-volume plates (murine) or 384-well plates (human) following the manufacturers instructions. Briefly, suspended cells were incubated with a dose titration of test compound at RT for 60 min, lysed, and incubated with HTRF reagents for an additional 60 min. The plate was read using an Envision multilabel reader (Perkin Elmer) adjusted to read time resolved fluorescence and the cAMP concentrations were extrapolated from a cAMP calibration curve. […] The concentration of test compound required to stimulate a half-maximal response (EC50), and efficacy as compared to an internal agonist control, was determined from a sigmoidal 4-parameter curve fit of the resulting plot of normalized activity versus compound concentration.
As for `CC1(OC(=O)N2CCC([C@H]3C[C@H]3CCOc3ccc(CC(=O)N4CCC[C@@H]4C(F)(F)F)c(F)c3)CC2)CC1` [Example 68], the EC50 came out at 5.1 nM. On the same count and under the same terms, for `CN(C)C(=O)Cc1ccc(OCC[C@@H]2C[C@@H]2C2CCN(C(=O)OC3(C)CC3)CC2)cc1F` [Example 66] the value was 2.4 nM; for `CC(C)c1noc(N2CCC([C@H]3C[C@H]3CCOc3cc(F)c(CC(=O)N4CC(C)(O)C4)c(F)c3)CC2)n1` [Example 112], 2.4 nM.

Still in this assay, the particulars now being: stated in the example text; cAMP stimulation, human GPR119; read-out: GPR119 Human EC50.
Turning to `Cc1cc(-n2cnnn2)cnc1OCC[C@@H]1C[C@@H]1C1CCN(c2nc(C(C)C)no2)CC1` [Example 225, 2-(2-{(1S,2R)-2-[1-(3-isopropyl-1,2,4-oxidiazol-5-yl)piperidin-4-yl]cyclopropyl}ethoxy]-3-methyl-5-(1H-tetrazol-1-yl)pyridine], the EC50 came to 0.1 nM.

Consider `CC(C)OC(=O)N1CCC([C@H]2C[C@H]2CCOc2cc(F)c(C(=O)NC3CC3)c(F)c2)CC1` [Example 58], for which the EC50 is 3.5 nM.

Staying with this assay, now noted: table column; cAMP stimulation, human GPR119; read-out: GPR119 Human EC50.
Consider `CC(C)c1noc(N2CCC([C@H]3C[C@H]3CCOc3ccc(CC(=O)N4CC(F)(F)C4)cc3)CC2)n1` [Example 132], for which the EC50 is 2.7 nM. The same measure, in the same setting: for `Cc1cc(-n2cnnn2)cnc1OCC[C@@H]1C[C@@H]1C1CCN(c2nc(C(C)O)no2)CC1` (some centres unmarked) [Example 229] the value was 5 nM. The same measure, in the same setting: in the case of `CC(C)c1noc(N2CCC([C@H]3C[C@H]3CCOc3ccc(CC(=O)N4CCc5nc(C(F)(F)F)sc5C4)c(F)c3)CC2)n1` [Example 184] it was 3.5 nM; in that of `CC(C)c1noc(N2CCC([C@H]3C[C@H]3CCOc3ccc(CC(=O)N4CC(O)C4)c(F)c3)CC2)n1` [Example 139], 6 nM; in that of `CC(C)c1noc(N2CCC([C@H]3C[C@H]3CCOc3ccc(CC(=O)N4CCCC4)c(F)c3)CC2)n1` [Example 146], 1.2 nM.

Consider `CS(=O)(=O)c1ccc(OCC[C@@H]2C[C@@H]2C2CCN(C(=O)OC3CCC3)CC2)nc1` [Example 18], for which the EC50 was 0.4 nM. As to `COCc1noc(N2CCC([C@H]3C[C@H]3CCOc3ccc(CC(=O)N4CCC[C@H]4C(F)(F)F)c(F)c3)CC2)n1` [Example 204], the EC50 is 3.6 nM. For `CC1(OC(=O)N2CCC([C@H]3C[C@H]3CCOc3ccc(-n4cnnn4)cc3)CC2)CCC1` [Example 10], the EC50 is 0.3 nM.

Regarding `CC(C)c1noc(N2CCC([C@H]3C[C@H]3CCOc3ccc(CC(=O)N4CCn5c(nnc5C5CC5)C4)c(F)c3)CC2)n1` [Example 176], the EC50 amounted to 5.7 nM. Still for that read-out and setting: for `COCc1noc(N2CCC([C@H]3C[C@H]3CCOc3ccc(-c4nnn(C)n4)cc3)CC2)n1` [Example 224] the value was 6.4 nM.

As to `CCc1noc(N2CCC([C@H]3C[C@H]3CCOc3ccc(S(C)(=O)=O)cn3)CC2)n1` [Example 214], the EC50 came out at 3.2 nM.

For the compound `Cc1nc(C#N)cc(OCC[C@@H]2C[C@@H]2C2CCN(C(=O)OC(C)(C)C)CC2)n1` [Example 47], the EC50 stood at 0.2 nM. The same measure, in the same setting: for `CC(C)c1noc(N2CCC([C@H]3C[C@H]3CCOc3ccc(CC(=O)N4CCc5ccsc5C4)c(F)c3)CC2)n1` [Example 173] the value was 2.2 nM; for `CS(=O)(=O)c1ccc(OCC[C@@H]2C[C@@H]2C2CCN(c3noc(CC4CC4)n3)CC2)nc1` [Example 243], 9.8 nM.

Consider `CCC1(OC(=O)N2CCC([C@H]3C[C@H]3CCOc3ccc(S(C)(=O)=O)cn3)CC2)CC1` [Example 25], for which the EC50 was 2.2 nM. The same measure, in the same setting: for `Cc1nc(C#N)cc(OCC[C@@H]2C[C@@H]2C2CCN(C(=O)OCC(C)C)CC2)n1` [Example 48] the value was 1 nM; for `CCN(CC)C(=O)Cc1ccc(OCC[C@@H]2C[C@@H]2C2CCN(c3nc(C(C)C)no3)CC2)cc1F` [Example 144], 1.8 nM. Same read-out and setting: in the case of `COCc1noc(N2CCC([C@H]3C[C@H]3CCOc3ccc(-n4cncn4)cc3)CC2)n1` [Example 223] it was 7.2 nM.

A word on the EC50: it is the concentration at which the effect is half-maximal.
